Data from patent US9701603B2, “Strepsesquitriol, preparation method thereof, and application thereof” (SOUTH CHINA SEA INSTITUTE OF OCEANOLOGY, CHINESE ACADEMY OF …, priority 2013, dated 2017).

Tests used:
RAW264.7 cells = assay: Cytotoxic activity to RAW264.7 cells; format: cell-based; conditions: concentration 100 μM
LPS-induced TNFα = assay: Inhibition of the formation of LPS-induced TNFα in RAW264.7 macrophages; format: cell-based
Source text: As for determination of inhibitory activity of Strepsesquitriol on the formation of lipopolysaccharide (LPS)-induced TNFα in RAW264.7 macrophages, please refer to the references (Fan, S. Y.; Zeng, H. W.; Pei, Y. H.; Li. L.; Ye, J.; Pan, Y. X.; Zhang, J. G.; Yuan, X.; Zhang, W. D. The anti-inflammatory activities of an extract and compounds isolated from Platycladus orientalis (Linnaeus) Franco in vitro and ex vivo J Ethnopharmacol 2012, 141, 647-652) ENREF 3.

For `C[C@H]1C[C@@H](O)[C@]23C[C@H](CC[C@]12O)C(C)(C)[C@]3(C)O` [Strepsesquitriol A, (1R,2R,4S,5S,8S,10S)-4,9,9,10-tetramethyl-2,5,10-trihydroxyltricyclo[6.2.1.0^1,5]undecane], the cytotoxic activity (RAW264.7 cells) was “no cytotoxic activity”, the inhibition at 3.6 µM (LPS-induced TNFα; Mus musculus, concentration 3.6 μM, read-out: Inhibition rate (%)) was 3.4 ± 2.8% and the inhibition at 11 µM (LPS-induced TNFα; Mus musculus, concentration 11.0 μM, read-out: Inhibition rate (%)) was 8 ± 1.6%. The inhibition at 33 µM (LPS-induced TNFα; Mus musculus, concentration 33.0 μM, read-out: Inhibition rate (%)) was 30.6 ± 1.4% and the inhibition at 100 µM (LPS-induced TNFα; Mus musculus, concentration 100 μM, read-out: Inhibition rate (%)) was 35.4%.
For `Cc1ccc(S(=O)(=O)N[C@@H](Cc2ccccc2)C(=O)CCl)cc1` [TPCK, N-p-tosyl-1-phenylalanine chloromethyl ketone, reference compound], the “Inhibition rate (%)” value (LPS-induced TNFα; concentration 100 μM) was 60.6%.
